In ChEMBL document CHEMBL4308841, “Synthesis, in vitro antiproliferative activity, and kinase inhibitory effects of pyrazole-containing diarylureas and diarylamides” (Eur J Med Chem, 2018):

Assays:
[1] = tested on: OVCAR-5; test: Growth inhibition of human OVCAR5 cells assessed as cell growth at 100 uM incubated for 48 hrs by sulforhodamine B assay relative to control; type: functional; details: OVCAR-5, 48 h, read-out: Activity
[2] = tested on: SF-268; test: Growth inhibition of human SF268 cells incubated for 48 hrs by sulforhodamine B assay; type: functional, cell-based; details: SF-268, 48 h
[3] = tested on: IGROV-1; test: Growth inhibition of human IGROV1 cells assessed as cell growth at 100 uM incubated for 48 hrs by sulforhodamine B assay relative to control; type: functional; details: IGROV-1, 48 h, read-out: Activity
[4] = tested on: RXF 393; test: Growth inhibition of human RXF393 cells incubated for 48 hrs by sulforhodamine B assay; type: functional, cell-based; details: RXF 393, 48 h
[5] = tested on: SF-268; test: Growth inhibition of human SF268 cells assessed as cell growth at 0.1 uM incubated for 48 hrs by sulforhodamine B assay relative to control; type: functional; details: SF-268, 48 h, read-out: Activity
[6] = tested on: KM12; test: Growth inhibition of human KM12 cells assessed as cell growth at 0.01 uM incubated for 48 hrs by sulforhodamine B assay relative to control; type: functional; details: KM12, 48 h, read-out: Activity
[7] = tested on: SNB-19; test: Growth inhibition of human SNB19 cells assessed as cell growth at 0.1 uM incubated for 48 hrs by sulforhodamine B assay relative to control; type: functional; details: SNB-19, 48 h, read-out: Activity
[8] = tested on: MCF7; test: Growth inhibition of human MCF7 cells assessed as cell growth at 1 uM incubated for 48 hrs by sulforhodamine B assay relative to control; type: functional; details: MCF7, 48 h, read-out: Activity
[9] = tested on: PC-3; test: Growth inhibition of human PC3 cells incubated for 48 hrs by sulforhodamine B assay; type: functional, cell-based; details: PC-3, 48 h
[10] = tested on: SNB-19; test: Growth inhibition of human SNB19 cells assessed as cell growth at 0.01 uM incubated for 48 hrs by sulforhodamine B assay relative to control; type: functional; details: SNB-19, 48 h, read-out: Activity
[11] = tested on: SN12C; test: Growth inhibition of human SN12C cells assessed as cell growth at 0.01 uM incubated for 48 hrs by sulforhodamine B assay relative to control; type: functional; details: read-out: Activity
[12] = tested on: SR; test: Growth inhibition of human SR cells assessed as cell growth at 0.01 uM incubated for 48 hrs by sulforhodamine B assay relative to control; type: functional; details: read-out: Activity
[13] = tested on: IGROV-1; test: Growth inhibition of human IGROV1 cells incubated for 48 hrs by sulforhodamine B assay; type: functional, cell-based; details: IGROV-1, 48 h
[14] = tested on: OVCAR-3; test: Growth inhibition of human OVCAR3 cells incubated for 48 hrs by sulforhodamine B assay; type: functional, cell-based; details: OVCAR-3, 48 h
[15] = tested on: UACC-62; test: Growth inhibition of human UACC62 cells assessed as cell growth at 1 uM incubated for 48 hrs by sulforhodamine B assay relative to control; type: functional; details: UACC-62, 48 h, read-out: Activity
[16] = tested on: OVCAR-3; test: Growth inhibition of human OVCAR3 cells assessed as cell growth at 100 uM incubated for 48 hrs by sulforhodamine B assay relative to control; type: functional; details: OVCAR-3, 48 h, read-out: Activity
[17] = tested on: NCI-H226; test: Growth inhibition of human NCI-H226 cells assessed as cell growth at 100 uM incubated for 48 hrs by sulforhodamine B assay relative to control; type: functional; details: NCI-H226, 48 h, read-out: Activity
[18] = tested on: NCI-H23; test: Growth inhibition of human NCI-H23 cells assessed as cell growth at 1 uM incubated for 48 hrs by sulforhodamine B assay relative to control; type: functional; details: NCI-H23, 48 h, read-out: Activity
[19] = tested on: NCI/ADR-RES; test: Growth inhibition of human NCI/ADR-RES cells assessed as cell growth at 100 uM incubated for 48 hrs by sulforhodamine B assay relative to control; type: functional; details: read-out: Activity
[20] = tested on: NCI-H322M; test: Growth inhibition of human NCI-H322M cells incubated for 48 hrs by sulforhodamine B assay; type: functional, cell-based
[21] = tested on: SNB-75; test: Growth inhibition of human SNB75 cells assessed as cell growth at 1 uM incubated for 48 hrs by sulforhodamine B assay relative to control; type: functional; details: SNB-75, 48 h, read-out: Activity
[22] = tested on: HCC 2998; test: Growth inhibition of human HCC2998 cells assessed as cell growth at 100 uM incubated for 48 hrs by sulforhodamine B assay relative to control; type: functional; details: HCC 2998, 48 h, read-out: Activity
[23] = tested on: U-251; test: Growth inhibition of human U251 cells assessed as cell growth at 0.1 uM incubated for 48 hrs by sulforhodamine B assay relative to control; type: functional; details: U-251, 48 h, read-out: Activity
[24] = tested on: Hs-578T; test: Growth inhibition of human Hs578T cells assessed as cell growth at 1 uM incubated for 48 hrs by sulforhodamine B assay relative to control; type: functional; details: read-out: Activity
[25] = tested on: RXF 393; test: Growth inhibition of human RXF393 cells assessed as cell growth at 0.1 uM incubated for 48 hrs by sulforhodamine B assay relative to control; type: functional; details: RXF 393, 48 h, read-out: Activity
[26] = tested on: SF-539; test: Growth inhibition of human SF539 cells assessed as cell growth at 1 uM incubated for 48 hrs by sulforhodamine B assay relative to control; type: functional; details: SF-539, 48 h, read-out: Activity
[27] = tested on: OVCAR-5; test: Growth inhibition of human OVCAR5 cells assessed as cell growth at 0.1 uM incubated for 48 hrs by sulforhodamine B assay relative to control; type: functional; details: OVCAR-5, 48 h, read-out: Activity
[28] = tested on: Malme-3M; test: Growth inhibition of human MALME-3M cells assessed as cell growth at 1 uM incubated for 48 hrs by sulforhodamine B assay relative to control; type: functional; details: read-out: Activity
[29] = tested on: UO-31; test: Growth inhibition of human UO31 cells assessed as cell growth at 1 uM incubated for 48 hrs by sulforhodamine B assay relative to control; type: functional; details: UO-31, 48 h, read-out: Activity
[30] = tested on: SF-268; test: Growth inhibition of human SF268 cells assessed as cell growth at 1 uM incubated for 48 hrs by sulforhodamine B assay relative to control; type: functional; details: SF-268, 48 h, read-out: Activity
[31] = tested on: SN12C; test: Growth inhibition of human SN12C cells assessed as cell growth at 1 uM incubated for 48 hrs by sulforhodamine B assay relative to control; type: functional; details: read-out: Activity
[32] = read-out: LC50 (the source's name)
[33] = read-out: pLC50 (the source's name) (converted)

O=C(Nc1cccc(-n2cc(-c3ccncc3)c(-c3cc(O)cc(Cl)c3)n2)c1)Nc1ccc(Cl)c(Cl)c1
growth at 100 µM [1]: -80%
GI50 ([2]; read-out: GI50): 3.22 µM
CC50 [2, 32]: > 100 µM
TGI ([2]; read-out: TGI): 32.6 µM
GI50 ([2]; read-out: pGI50 (converted)): 3.24 µM
CC50 [2, 33]: > 100 µM
TGI ([2]; read-out: pTGI (converted)): 33.1 µM
growth at 100 µM [3]: -12%
LC50 [4]: 8.13 µM
GI50 ([4]; read-out: GI50): 0.556 µM
TGI ([4]; read-out: TGI): 24.6 µM
GI50 ([4]; read-out: pGI50 (converted)): 0.55 µM
TGI ([4]; read-out: pTGI (converted)): 2.45 µM
growth at 0.1 µM [5]: 98%
growth at 0.01 µM [6]: 102%
growth at 0.1 µM [7]: 95%
growth at 1 µM [8]: 91%
IC50 [9]: 1.69 µM
GI50 ([9]; read-out: GI50): 1.59 µM
CC50 [9, 32]: > 100 µM
TGI ([9]; read-out: TGI): 58.8 µM
GI50 ([9]; read-out: pGI50 (converted)): 1.7 µM
CC50 [9, 33]: > 100 µM
TGI ([9]; read-out: pTGI (converted)): 5.62 µM
growth at 0.01 µM [10]: 97%
growth at 0.01 µM [11]: 100%
growth at 0.01 µM [12]: 57%
GI50 ([13]; read-out: GI50): 2.56 µM
CC50 [13, 32]: > 100 µM
TGI ([13]; read-out: TGI): 92.3 µM
GI50 ([13]; read-out: pGI50 (converted)): 2.88 µM
CC50 [13, 33]: > 100 µM
TGI ([13]; read-out: pTGI (converted)): 9.33 µM
IC50 [14]: 1.96 µM
GI50 ([14]; read-out: GI50): 1.96 µM
CC50 [14, 32]: > 100 µM
TGI ([14]; read-out: TGI): 50.5 µM
GI50 ([14]; read-out: pGI50 (converted)): 1.95 µM
CC50 [14, 33]: > 100 µM
TGI ([14]; read-out: pTGI (converted)): 5.01 µM
growth at 1 µM [15]: 83%
growth at 100 µM [16]: -20%
growth at 100 µM [17]: -41%
growth at 1 µM [18]: 96%
growth at 100 µM [19]: 2%
GI50 ([20]; read-out: GI50): 1.78 µM
CC50 [20, 32]: > 100 µM
TGI ([20]; read-out: TGI): 76.1 µM
GI50 ([20]; read-out: pGI50 (converted)): 1.78 µM
CC50 [20, 33]: > 100 µM
TGI ([20]; read-out: pTGI (converted)): 7.76 µM
growth at 1 µM [21]: 63%
growth at 100 µM [22]: -55%
growth at 0.1 µM [23]: 93%
growth at 1 µM [24]: 57%
growth at 0.1 µM [25]: 85%
growth at 1 µM [26]: 72%
growth at 0.1 µM [27]: 90%
growth at 1 µM [28]: 76%
growth at 1 µM [29]: 78%
growth at 1 µM [30]: 89%
growth at 1 µM [31]: 58%
